From US11419806B2, “Prebiotic oral care methods using a saccharide” (Colgate-Palmolive Company, priority 2013, dated 2022)

These compounds were tested on Actinomyces naeslundii (assay: Phenotype microarray metabolic activity). Details: A naeslundii; 24 hrs.
Type: cell-based
Description: (§1) The extent of metabolic activity of the tested bacteria in the presence of the above-mentioned saccharides after 24 hours and 48 hours was investigated through a high throughput phenotype microarray system (PM) for microbial cells (Biolog Inc.). Each PM can contain up to 95 different biochemical compounds (e.g. saccharides) that may act as substrates for bacteria as well as one negative control, not containing the substrates. Microarray plates were used in which the different wells of each plate were pre-loaded (by the manufacturer, Biolog Inc.) with different saccharides to be tested. Each bacterial species was tested using a separate microarray plate. Thus, a single bacterial species was tested with a variety of saccharides on each particular plate. The microarrays are based on redox technology, using cell respiration as a universal reporter. Active cell respiration results in the reduction of a tetrazolium dye and in the formation of a strong color—for example, when using the tetrazolium dye “Biolog Redox Dye Mix D”, the color changes from transparent/colorless to purple when the dye is reduced. The observation of this color change indicates which of the substrates improve the metabolic activity and health of the cells.
(§2) Each bacterial species was collected from blood agar plates (incubated for 48 hours anaerobically at 37° C.) and transferred to an IF-0 Base inoculation fluid (Biolog Inc.), which is a nutritionally poor medium. The resulting cell suspension was adjusted to a transmittance of 42% (relative to the transmittance of the base inoculation fluid with no bacterial species present) at 492 nm using a BioRad SmartSpec 3000 Photometer (the adjustment being effected by adding either further inoculation fluid or further bacteria until the transmittance of 42% was achieved). A 1:5 dilution of this suspension was prepared by mixing 3 mL of the 42% transmittance cell suspension with 15 mL of an inoculation fluid (which inoculation fluid was formed by mixing 11.6 mL sterile water, 62.5 mL IF-0 base inoculation fluid and 0.9 mL of the tetrazolium dye “Biolog Redox Dye mix D”), resulting in a final cell density which was equal to 85% transmittance using a BioRad SmartSpec 3000 Photometer. For each of the saccharides tested, the microarray plate (obtained from the supplier (Biolog Inc.) with saccharides already present in the relevant wells in powder form) was directly inoculated with 100 μL/well of this 85% transmittance cell suspension.
(§3) All plates were incubated in an anaerobic atmosphere at 37° C. Color changes were measured spectrophotometrically at 492 nm (Thermo Scientific Multiskan Ascent) at 24 hrs and 48 hrs using the same plate at both time points. […] After 24 hrs and 48 hrs under continuous shaking in a Multiscan microplate reader, the optical density (OD) of the synthetic medium at 24 hours and 48 hours was measured (using the microplate reader) at a wavelength of 492 nm for each combination of bacterium/saccharide, and for each of their respective controls (i.e. which contained the particular bacterium but no saccharide).
(§4) The experiment was carried out three times for each combination of bacterium with saccharide, with each repeat being carried out on a different day (thus providing three biological replicas). The controls were also carried out three times, as above. The values shown are the average (mean) of the three single values obtained (as detailed above) for each combination of bacterium with saccharide, at 24 hrs and at 48 hrs.

SMILES	metabolic activity: OD 492 nm divided by OD of control (control = 1)
OC[C@H]1O[C@@](O)(CO)[C@@H](O[C@H]2O[C@H](CO)[C@@H](O)[C@H](O)[C@H]2O)[C@@H]1O [D-Turanose, α-D-glucopyranosyl-(1→3)-α-D-fructofuranose]	2.1636

Same assay, conditions: A naeslundii; 48 hrs

SMILES	metabolic activity: OD 492 nm divided by OD of control (control = 1)
OC[C@H]1O[C@@](O)(CO)[C@@H](O[C@H]2O[C@H](CO)[C@@H](O)[C@H](O)[C@H]2O)[C@@H]1O [D-Turanose, α-D-glucopyranosyl-(1→3)-α-D-fructofuranose]	2.7551

The compounds below were run on Actinomyces viscosus (assay: Phenotype microarray metabolic activity). Details: A viscosus; 24 hrs.
Type: cell-based
Description: as §1, §2, §3, §4

SMILES	metabolic activity: OD 492 nm divided by OD of control (control = 1)
OC[C@H]1O[C@@](O)(CO)[C@@H](O[C@H]2O[C@H](CO)[C@@H](O)[C@H](O)[C@H]2O)[C@@H]1O [D-Turanose, α-D-glucopyranosyl-(1→3)-α-D-fructofuranose]	2.2260

Same assay, conditions: A viscosus; 48 hrs

SMILES	metabolic activity: OD 492 nm divided by OD of control (control = 1)
OC[C@H]1O[C@@](O)(CO)[C@@H](O[C@H]2O[C@H](CO)[C@@H](O)[C@H](O)[C@H]2O)[C@@H]1O [D-Turanose, α-D-glucopyranosyl-(1→3)-α-D-fructofuranose]	3.0809

These compounds were tested on Aggregatibacter actinomycetemcomitans (assay: Phenotype microarray metabolic activity). Details: A actinomycetemcomitans; 24 hrs.
Type: cell-based
Description: as §1, §2, §3, §4

SMILES	metabolic activity: OD 492 nm divided by OD of control (control = 1)
OC[C@H]1O[C@@](O)(CO)[C@@H](O[C@H]2O[C@H](CO)[C@@H](O)[C@H](O)[C@H]2O)[C@@H]1O [D-Turanose, α-D-glucopyranosyl-(1→3)-α-D-fructofuranose]	1.0170

Same assay, conditions: A actinomycetemcomitans; 48 hrs

SMILES	metabolic activity: OD 492 nm divided by OD of control (control = 1)
OC[C@H]1O[C@@](O)(CO)[C@@H](O[C@H]2O[C@H](CO)[C@@H](O)[C@H](O)[C@H]2O)[C@@H]1O [D-Turanose, α-D-glucopyranosyl-(1→3)-α-D-fructofuranose]	1.2549

The compounds below were run on Capnocytophaga sputigena (assay: Phenotype microarray metabolic activity). Details: C sputigena; 24 hrs.
Type: cell-based
Description: as §1, §2, §3, §4

SMILES	metabolic activity: OD 492 nm divided by OD of control (control = 1)
OC[C@H]1O[C@@](O)(CO)[C@@H](O[C@H]2O[C@H](CO)[C@@H](O)[C@H](O)[C@H]2O)[C@@H]1O [D-Turanose, α-D-glucopyranosyl-(1→3)-α-D-fructofuranose]	0.9893

Same assay, conditions: C sputigena; 48 hrs

SMILES	metabolic activity: OD 492 nm divided by OD of control (control = 1)
OC[C@H]1O[C@@](O)(CO)[C@@H](O[C@H]2O[C@H](CO)[C@@H](O)[C@H](O)[C@H]2O)[C@@H]1O [D-Turanose, α-D-glucopyranosyl-(1→3)-α-D-fructofuranose]	1.0899

These compounds were tested on Fusobacterium nucleatum (assay: Phenotype microarray metabolic activity). Details: F nucleatum; 24 hrs.
Type: cell-based
Description: as §1, §2, §3, §4

SMILES	metabolic activity: OD 492 nm divided by OD of control (control = 1)
OC[C@H]1O[C@@](O)(CO)[C@@H](O[C@H]2O[C@H](CO)[C@@H](O)[C@H](O)[C@H]2O)[C@@H]1O [D-Turanose, α-D-glucopyranosyl-(1→3)-α-D-fructofuranose]	1.3517

Same assay, conditions: F nucleatum; 48 hrs

SMILES	metabolic activity: OD 492 nm divided by OD of control (control = 1)
OC[C@H]1O[C@@](O)(CO)[C@@H](O[C@H]2O[C@H](CO)[C@@H](O)[C@H](O)[C@H]2O)[C@@H]1O [D-Turanose, α-D-glucopyranosyl-(1→3)-α-D-fructofuranose]	1.6086

These compounds were tested on Porphyromonas gingivalis (assay: Phenotype microarray metabolic activity). Details: P gingivalis; 24 hrs.
Type: cell-based
Description: as §1, §2, §3, §4

SMILES	metabolic activity: OD 492 nm divided by OD of control (control = 1)
OC[C@H]1O[C@@](O)(CO)[C@@H](O[C@H]2O[C@H](CO)[C@@H](O)[C@H](O)[C@H]2O)[C@@H]1O [D-Turanose, α-D-glucopyranosyl-(1→3)-α-D-fructofuranose]	0.8165

Same assay, conditions: P gingivalis; 48 hrs

SMILES	metabolic activity: OD 492 nm divided by OD of control (control = 1)
OC[C@H]1O[C@@](O)(CO)[C@@H](O[C@H]2O[C@H](CO)[C@@H](O)[C@H](O)[C@H]2O)[C@@H]1O [D-Turanose, α-D-glucopyranosyl-(1→3)-α-D-fructofuranose]	0.7822

Each compound was assayed on Prevotella intermedia (assay: Phenotype microarray metabolic activity). Details: P intermedia; 24 hrs.
Type: cell-based
Description: as §1, §2, §3, §4

SMILES	metabolic activity: OD 492 nm divided by OD of control (control = 1)
OC[C@H]1O[C@@](O)(CO)[C@@H](O[C@H]2O[C@H](CO)[C@@H](O)[C@H](O)[C@H]2O)[C@@H]1O [D-Turanose, α-D-glucopyranosyl-(1→3)-α-D-fructofuranose]	1.1121

Same assay, conditions: P intermedia; 48 hrs

SMILES	metabolic activity: OD 492 nm divided by OD of control (control = 1)
OC[C@H]1O[C@@](O)(CO)[C@@H](O[C@H]2O[C@H](CO)[C@@H](O)[C@H](O)[C@H]2O)[C@@H]1O [D-Turanose, α-D-glucopyranosyl-(1→3)-α-D-fructofuranose]	1.2058

Each compound was assayed on S sanguinis (assay: Phenotype microarray metabolic activity). Details: 24 hrs.
Type: cell-based
Description: as §1, §2, §3, §4

SMILES	metabolic activity: OD 492 nm divided by OD of control (control = 1)
OC[C@H]1O[C@@](O)(CO)[C@@H](O[C@H]2O[C@H](CO)[C@@H](O)[C@H](O)[C@H]2O)[C@@H]1O [D-Turanose, α-D-glucopyranosyl-(1→3)-α-D-fructofuranose]	1.3458
